The values below come from US20020183313A1, “1,4-benzodiazepinones and their uses as CCK antagonists” (Fujisawa Pharmaceutical Co., Ltd., priority 1996, published 2002).

The term melting point denotes the temperature, or range, at which the solid turns liquid.

The structures appear in SMILES notation.

Consider `CCC1=NC(NC(=O)Nc2cccc(C)c2)C(=O)N(CC(=O)N2CC3CCC(CC3)C2)c2ccccc21` (racemic), for which the melting point fell in the range of 115 to 120 °C.
`CCCCC1=NC(NC(=O)Nc2cccc(C)c2)C(=O)N(CC(=O)N2CC3CCC(CC3)C2)c2ccccc21` (racemic): the melting point was 121 to 123 °C.
The figure for `O=C(Nc1cccc(-c2nnn[nH]2)c1)NC1N=C(CC2CCCCC2)c2ccccc2N(CC(=O)N2CC3CCC(CC3)C2)C1=O` (racemic) is 218 to 222 °C (dec.); for `Cc1cccc2c1N(CC(=O)c1ccccc1O)C(=O)C(NC(=O)Nc1cccc(-c3nnnn3C(c3ccccc3)(c3ccccc3)c3ccccc3)c1)N=C2c1ccccc1F` (racemic) it is 132.1 to 146 °C; for `CC(=O)N(C(C)=O)c1ccccc1C(=O)CN1C(=O)C(NC(=O)Nc2cccc(-c3nnn[nH]3)c2)N=C(c2ccccc2F)c2cccc(C)c21` (racemic) it is 192 to 216.6 °C (dec.).
The compound `Cc1cccc2c1N(CC(=O)N1CC3CCC(CC3)C1)CC(NC(=O)Nc1cccc(Br)c1)N=C2c1ccccc1F` (racemic) returned a melting point of more than 250 °C.
To `CC(=NO)c1cccc(NC(=O)NC2N=C(c3ccccc3F)c3cccc(C)c3N(CC(=O)N3CC4CCC(CC4)C3)C2=O)c1` (racemic) belongs 199.1 to 207.8 °C; to `Cc1cccc(NC(=O)NC2N=C(C3CCCCC3)c3cccc(C)c3N(C)C2=O)c1` (racemic), 196.4 to 197.5 °C.
Compound `Cc1cccc(NC(=O)NC2N=C(c3ccccc3F)c3cccc(C)c3N(CC(=O)c3ccccc3C)C2=O)c1` (racemic) registered a melting point of 190.2 to 196.2 °C.
Regarding `Cc1ccccc1C(=O)CN1C(=O)C(NC(=O)Nc2cccc(-c3nnn[nH]3)c2)N=C(c2ccccc2F)c2cccc(C)c21` (racemic), the melting point was 215.8 to 220.3 °C.
To `Cc1ccccc1C(=O)CN1C(=O)C(NC(=O)Nc2cccc(C(=O)O)c2)N=C(c2ccccc2F)c2cccc(C)c21` (racemic) belongs 168.1 to 176.3 °C; to `CC(C)C1=NC(NC(=O)Nc2ccccc2)C(=O)N(CC(=O)N2CC3CCC(CC3)C2)c2ccccc21` (racemic), 132 to 135 °C; to `CC(C)C1=NC(NC(=O)NC2CCCCC2)C(=O)N(CC(=O)N2CC3CCC(CC3)C2)c2ccccc21` (racemic), 138 to 140 °C.
To `CC(C)c1cccc2c1N(CC(=O)N1CC3CCC(CC3)C1)C(=O)C(NC(=O)Nc1cccc(-c3nnn[nH]3)c1)N=C2c1ccccc1F` (racemic) belongs 212.2 to 222.1 °C; to `Cc1cccc(NC(=O)NC2N=C(c3ccccc3F)c3cccc(C(C)C)c3N(CC(=O)N3CC4CCC(CC4)C3)C2=O)c1` (racemic), 183.3 to 186.8 °C; to `Cc1cccc2c1N(CC(=O)N1CC3CCC(CC3)C1)C(=O)C(NC(=O)Nc1cccc(O)c1)N=C2c1ccccc1F` (racemic), 192.8 to 203.9 °C.
To `Cc1cccc2c1N(CC(=O)N1CC3CCC(CC3)C1)C(=O)C(NC(=O)Nc1cccc(-c3nnn[nH]3)c1)N=C2C1CCCCC1` (racemic) belongs 186.2 to 197.6 °C; to `Cc1cccc2c1N(Cc1ccccn1)C(=O)C(NC(=O)Nc1cccc(-c3nnn[nH]3)c1)N=C2c1ccccc1F` (racemic), 173.9 to 182 °C.
`O=C(Nc1cccc(-c2nnn[nH]2)c1)NC1N=C(c2ccccc2F)c2cccc(Cl)c2N(CC(=O)N2CC3CCC(CC3)C2)C1=O` (racemic) had a melting point of 172 to 180.5 °C.
The figure for `Cc1cccc(NC(=O)NC2N=C(C(C)C)c3ccccc3N(CC(=O)N3CC4CCC(CC4)C3)C2=O)c1` (racemic) is 123 to 126 °C.
Take `Cc1cccc2c1N(CC(=O)C(C)(C)C)C(=O)C(NC(=O)Nc1cccc(-c3nnn[nH]3)c1)N=C2c1ccccc1F` (racemic): the melting point was 160.4 to 180.7 °C (dec.).
To `CC1=NC(NC(=O)Nc2cccc(C)n2)C(=O)N(CC(=O)N2CC3CCC(CC3)C2)c2c(C)cccc21` (racemic) belongs 150.8 to 152.1 °C; to `CC1=NC(NC(=O)Nc2cc(C)ccn2)C(=O)N(CC(=O)N2CC3CCC(CC3)C2)c2c(C)cccc21` (racemic), 152 to 154.1 °C.
As to `CC1=NC(NC(=O)Nc2cccc(N(C)C)c2)C(=O)N(CC(=O)N2CC3CCC(CC3)C2)c2c(C)cccc21.Cl` (racemic), the melting point was 190.9 to 193.1 °C.
To `CC1=NC(NC(=O)Nc2cccc(C)c2)C(=O)N(CC(=O)N2CC3CCC(CC3)C2)c2c1cccc2N(C)C.Cl` (racemic) belongs 216.5 to 218.7 °C; to `Cc1cccc2c1N(CC(=O)OC(C)(C)C)C(=O)C(NC(=O)Nc1cccc(-c3nnn[nH]3)c1)N=C2c1ccccc1F` (racemic), 151.4 to 174.2 °C (dec.).
As to `Cc1cccc2c1N(CC(=O)C13CC4CC(CC(C4)C1)C3)C(=O)C(NC(=O)Nc1cccc(-c3nnn[nH]3)c1)N=C2c1ccccc1F` (racemic), the melting point is 195 to 218.4 °C (dec.).
To `CC(=O)CN1C(=O)C(NC(=O)Nc2cccc(-c3nnn[nH]3)c2)N=C(c2ccccc2F)c2cccc(C)c21` (racemic) belongs 173.5 to 189.8 °C; to `Cc1cccc2c1N(CC(=O)c1cccc([N+](=O)[O-])c1)C(=O)C(NC(=O)Nc1cccc(-c3nnn[nH]3)c1)N=C2c1ccccc1F` (racemic), 194.4 to 198.1 °C; to `Cc1cccc2c1N(CC(=O)c1ccccc1[N+](=O)[O-])C(=O)C(NC(=O)Nc1cccc(-c3nnn[nH]3)c1)N=C2c1ccccc1F` (racemic), 192.2 to 197.1 °C.
To `Cc1cccc(NC(=O)NC2N=C(C(C)C)c3cccc(C)c3N(CC(=O)N3CC4CCC(CC4)C3)C2=O)c1` (racemic) belongs 189.9 to 192.8 °C; to `CC1=NC(NC(=O)Nc2cccc(Br)c2)C(=O)N(CC(=O)N2CC3CCC(CC3)C2)c2c(C)cccc21` (racemic), 168.1 to 171.1 °C; to `CC1=NC(NC(=O)Nc2cccc(Cl)c2)C(=O)N(CC(=O)N2CC3CCC(CC3)C2)c2c(C)cccc21` (racemic), 181.2 to 185.1 °C.
The figure for `CSc1cccc(NC(=O)NC2N=C(C)c3cccc(C)c3N(CC(=O)N3CC4CCC(CC4)C3)C2=O)c1` (racemic) is 237.2 to 238.5 °C; for `COc1cccc(NC(=O)NC2N=C(C)c3cccc(C)c3N(CC(=O)N3CC4CCC(CC4)C3)C2=O)c1` (racemic) it is 169.6 to 170.7 °C; for `CC1=NC(NC(=O)Nc2cccc(C)c2)C(=O)N(CC(=O)N2CC3CCC(CC3)C2)c2c(C)cccc21` (racemic) it is 176.9 to 179.1 °C.
Compound `COCC1=NC(NC(=O)Nc2cccc(C)c2)C(=O)N(CC(=O)N2CC3CCC(CC3)C2)c2c(C)cccc21` (racemic) came in with a melting point of 178.1 to 182.1 °C.
The figure for `Cc1cccc(NC(=O)NC2N=C(C3CC3)c3cccc(C)c3N(CC(=O)N3CCCCCCC3)C2=O)c1` (racemic) is 177.7 to 179.2 °C; for `CC1=NC(NC(=O)Nc2cccc(C)c2)C(=O)N(CC(=O)N2CC3CCC(CC3)C2)c2ccccc21` (racemic) it is 150 to 153 °C; for `CSc1cccc(NC(=O)NC2N=C(C(C)C)c3ccccc3N(CC(=O)N3CC4CCC(CC4)C3)C2=O)c1` (racemic) it is 134 to 135 °C.
The figure for `CC(=O)OCC1=NC(NC(=O)Nc2cccc(C)c2)C(=O)N(CC(=O)N2CC3CCC(CC3)C2)c2c(C)cccc21` (racemic) is 133 to 134.5 °C.
